Results published in patent US9724391B2, “Combination preparation including a corticosteroid and exosomes” (ORTHOGEN AG, priority 2009, dated 2017).

Key:
[1] = tested on: patient with partial rotator cuff rupture and complete shoulder stiffness le; conditions: before combination therapy
Description: Surgery appointment for the left shoulder was made. Here it should be tried to avoid surgery. […] 2 ml Orthokine were administered into the shoulder with 10 mg Anakinra and 10 mg triamcinolone via a syringe. […] The therapy was continued until day 4.

[2] = tested on: patient with complete alopecia; conditions: systemic and local application, high doses (10-80 mg prednisolone)
[3] = tested on: patient with psoriasic arthritis; conditions: cortisone 20-40 mg intraarticular, effect for some days; combination after a few days
[4] = tested on: patient with severe neurodermitis; assay: Case IX: severe neurodermitis, intramuscular application; type: in vivo, human; conditions: systemic intramuscular application, doses of 80 mg
Description: FIG. 1A to FIG. 1C show pictures of the feet of a neurodermitis patient whose case is described below as case IX (Example 4).
Case IX: • Severe dermatologically verified neurodermitis with strong changes, especially in the area of hands and feet. […] After that, attempt of intramuscular application of 2 ml of exosomes in connection with 20 mg triamcinolone. […] Subsequent slight deterioration but still improvement compared to preliminary findings. FIG. 1A describes the dermatological changes at both feet immediately before treatment, FIG. 1B and FIG. 1C one week after treatment for the right/left foot.

[5] = tested on: patient with severe Bechterew arthritis; assay: Case X: severe Bechterew arthritis, injection into the affected joints; type: in vivo, human; conditions: total dose 40 mg into all affected joints; for 1 week
Description: Case X • Severe Bechterew arthritis with iridocyclitis left eye. Patient is given prednisolone and MTX in changing doses as basic therapy. CRP 20_3 mg/l; left CFJ clearly swollen with +2 cm compared to the other side; left MCP and first knuckle 1st finger left clearly swollen and painful, right shoulder swollen, painful, abduction reduced by 30 degrees compared to normal. […] CRP within 1 week reduced from 20.3 mg/l to 2.9 mg/l.

[6] = tested on: patient with gonarthrosis ri, cartilage defects degree 2-4 according to Outerbridge; assay: Case VIII: gonarthrosis ri, intraarticular injection into the right knee; type: in vivo, human; conditions: triamcinolone 10-40 mg intraarticular (history); exosomes one-time intraarticular, after 4 weeks
Description: Case VIII: • Gonarthrosis ri with cartilage defects verified arthroscopically degree 2-4 according to Outerbridge. The patient wishes to delay surgery and joint replacement. History of intraarticular injection of triamcinolone in doses of 10-40 mg to no effect. Injection of 1 ml of exosomes prepared by means of the technique as described after incubation with IL-1Ra. […] Afterwards decision for an intraarticular injection into the right knee combined with 10 mg triamcinolone.

[7] = tested on: patient with severe therapy-resistant rheumatoid arthritis; conditions: after one week; triamcinolone alone 10 mg to 40 mg intraarticular, combination with total 20 mg triamcinolone
Description: Injection of exosomes (after incubation with IL-1Ra) and admixing total amount of 20 mg triamcinolone in MCP2-5 ab. and both shoulders.

[8] = tested on: osteoarthritis; conditions: in vivo; cited from earlier work

Molecule: C[C@]12CCC(=O)C=C1CC[C@@H]1[C@@H]2C(=O)C[C@@]2(C)[C@H]1CC[C@]2(O)C(=O)CO [cortisone]
- outcome of numerous earlier injections into the left shoulder [1]: without success
- effect of earlier therapy attempts on alopecia [2]: without effect
- pain reduction [3]: 10-30%

Molecule: C[C@]12C=CC(=O)C=C1CC[C@@H]1[C@@H]2[C@@H](O)C[C@@]2(C)[C@H]1CC[C@]2(O)C(=O)CO [prednisolone]
- duration of short-term effect [4]: 1 week

Molecule: C[C@]12C=CC(=O)C=C1CC[C@H]1[C@@H]3C[C@@H](O)[C@](O)(C(=O)CO)[C@@]3(C)C[C@H](O)[C@@]12F [triamcinolone]
- improvement [5]: 20%
- clinical effect regarding pain and function of single agents [6]: to no effect
- duration of short-term effect [4]: 1 week
- pain improvement / pain reduction [7]: 20%

Molecule: Anakinra: recombinant human IL-1 receptor antagonist, amino acids 26-177, terminally L-methionylated, 153 amino acids
- effects in the treatment of osteoarthritis compared to a placebo treatment [8]: did not show any effects
